As a reminder, the inhibition is the change of the read-out against control, counted positive when it falls.

Here are results for two compounds from patent publication EP0020266A1, “Derivatives of cyano-2-hydroxy-3-benzofurane and benzo(b)thiophene, their preparation and their use in therapy” (ANVAR Agence Nationale de Valorisation de la Recherche, priority 1979, dated 1980).

Several values for one entry are separate records, joined by “and”; a condition that tells them apart may be missing. Equal values may be shown once. Read-outs that look alike come from different tables or passages of the source.

For one test, the target named is T1, récepteurs β1-cardiaques (Cavia porcellus, UniProt H0W3H1).
T1 construct: sur l'oreillette isolée de cobaye; from tissue; host or cells: isolated guinea-pig atrium
Put plainly: Antagonism of the effects of isoprenaline on the isolated guinea-pig atrium (method of Giudicelli, Schmitt and Boissier). On the set-up: species or system cobaye. To be noted: for Effet inotrope + de l'isoprénaline Concentration active Après produit: isoprenaline concentration giving a 10 mm increase of the trace amplitude; for Effet chronotrope + de l'isoprénaline Concentration active Après produit: isoprenaline concentration giving an increase of 30 beats per min. From the text:
L'activité 8-lytique a été recherchée au niveau des récepteurs β1-cardiaques en déterminant l'antagonisme des effets de l'isoprénaline sur l'oreillette isolée de cobaye, selon la méthode de Giudicelli, Schmitt et Boissier (J. Pharmacol. Exper. Thérapeut., 1969, 168, 116). […]
Afin de ne pas surcharger inutilement les tableaux suivants, seuls les résultats correspondant au composé n° 2 sont indiqués.

Test [1] deals with T2, récepteurs S2-bronchiques (Cavia porcellus, UniProt Q8K4Z4).
T2 construct: a été étudiée chez le cobaye, à raison de cinq animaux par essai; from tissue; host or cells: whole guinea pig (bronchi, in vivo)
Briefly: Inhibition of the protection given by isoprenaline against serotonin bronchospasm (Konzett and Roessler, modified by Halpern). The class given is in vivo, cobaye. To be noted: guinea pig, i.v. 250 µg/kg; for inhibition at 0.25 mg/kg: iv, number in parentheses.
Description: L'action β2-adrénolytique au niveau bronchique a été étudiée chez le cobaye, à raison de cinq animaux par essai, en recherchant l'inhibition de la protection exercée par l'isoprénaline vis-à-vis du bronchospasme à la sérotonine, selon la méthode de Konzett et Roessler (Arch. Exper. Pathol. Pharmakol., 1940, 195, 71) modifiée par Halpern.
Les composés sont administrés par voie i.v. à la dose de 250 µg/kg.

The mark [2] stands for this setting: dose of product 1.10^-10 mole/cm^3.
[3] abbreviates: dose of product 1.10^-10 mole/cm^3, ratio of active concentrations after and before addition of product.
[4] abbreviates: dose of product 5.10^-10 mole/cm^3.

T1 sequence (H0W3H1 1-470): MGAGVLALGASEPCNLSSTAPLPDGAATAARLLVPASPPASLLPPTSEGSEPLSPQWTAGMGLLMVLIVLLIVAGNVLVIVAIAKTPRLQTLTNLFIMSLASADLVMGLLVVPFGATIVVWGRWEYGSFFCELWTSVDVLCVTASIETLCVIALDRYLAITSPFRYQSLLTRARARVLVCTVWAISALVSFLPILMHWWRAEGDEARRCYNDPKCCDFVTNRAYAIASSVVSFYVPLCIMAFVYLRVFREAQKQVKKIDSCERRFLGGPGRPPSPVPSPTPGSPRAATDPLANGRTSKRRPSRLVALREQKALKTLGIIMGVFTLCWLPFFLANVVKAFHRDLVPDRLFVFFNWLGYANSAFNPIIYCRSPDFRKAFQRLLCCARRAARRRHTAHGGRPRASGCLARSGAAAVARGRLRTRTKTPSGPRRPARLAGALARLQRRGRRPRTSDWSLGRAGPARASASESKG
T2 sequence (Q8K4Z4 whole entry): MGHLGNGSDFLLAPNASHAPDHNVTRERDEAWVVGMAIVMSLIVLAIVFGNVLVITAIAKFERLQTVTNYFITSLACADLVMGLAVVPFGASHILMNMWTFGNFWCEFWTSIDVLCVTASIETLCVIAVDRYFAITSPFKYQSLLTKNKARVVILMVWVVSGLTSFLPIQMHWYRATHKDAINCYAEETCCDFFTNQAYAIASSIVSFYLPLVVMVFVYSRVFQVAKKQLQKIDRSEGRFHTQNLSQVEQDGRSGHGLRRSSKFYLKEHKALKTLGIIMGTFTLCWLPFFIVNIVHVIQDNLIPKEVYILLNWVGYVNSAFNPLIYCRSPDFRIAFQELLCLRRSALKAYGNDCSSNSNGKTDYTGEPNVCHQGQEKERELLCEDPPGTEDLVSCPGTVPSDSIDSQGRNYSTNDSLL

With `CC(C)(C)NCC(O)COc1c(C#N)sc2ccccc12` (stereo not drawn) [compound 2], the “activité β1-stimulante” value on récepteurs β1-cardiaques (at low concentrations, compared with propranolol, summary of Table II) is recorded as “proche de celle du propranolol”. For the same compound, the “Effet inotrope + de l'isoprénaline Concentration active Après produit” value on récepteurs β1-cardiaques (setting [2]) is reported as 7,6.10^-8. Moreover, the “Effet chronotrope + de l'isoprénaline Concentration active Après produit” value is 3,8.10^-8 on récepteurs β1-cardiaques (setting [2]); 1,5.10^-7 and 1,8.10^-7 on récepteurs β1-cardiaques (setting [4]). Moreover, the “Effet chronotrope + de l'isoprénaline Index d'activité” value at récepteurs β1-cardiaques (setting [3]) came to 7. Besides, the “Effet inotrope + de l'isoprénaline Index d'activité” value on récepteurs β1-cardiaques (setting [3]) is listed as 6,5. Moreover, the “antagonisme des effets de l'isoprénaline (effet inotrope + et effet chronotrope +)” value on récepteurs β1-cardiaques (isolated atrium, single concentration 1.10^-7 g/cm^3, five preparations per product, given as maleate) is listed as “suffisamment efficace”. In addition, the “Moyenne de l'amplitude Après administration, au bout de 1 min” value in test [1] (1 min after administration, five animals) is reported as 20,4 ± 1,4. The “Moyenne de l'amplitude Après administration, au bout de 8 min” value in test [1] (8 min after administration, five animals) is on record as 3,8 ± 2,4. In addition, the “Moyenne de l'amplitude Après administration, au bout de 16 min” value in test [1] (16 min after administration, five animals) is listed as 0,6 ± 0,6. Besides, the “Moyenne de l'amplitude Après administration, au bout de 30 min” value in test [1] (30 min after administration, five animals) was 0. Also, the “Moyenne de l'amplitude Après administration, au bout de 60 min” value in test [1] (60 min after administration, five animals) was determined as 0. For the same compound, the “blocage des récepteurs S2-bronchiques” value in test [1] (compared with propranolol, summary of Table III) is listed as “très fugace”. In addition, the inhibition at 0.25 mg/kg in test [1] (1 min after administration, read-out: pourcentages d'inhibition de l'isoprénaline, 1 min (converted)) is 82%; in test [1] (8 min after administration, read-out: pourcentages d'inhibition de l'isoprénaline, 8 min (converted)), 15%; in test [1] (16 min after administration, read-out: pourcentages d'inhibition de l'isoprénaline, 16 min (converted)), 2%.
Turning to `CC(C)NCC(O)COc1cccc2ccccc12` (stereo not drawn) [propranolol, isopropylamino-1 (naphtyl-1 oxy)-3 propanol-2, reference compound], on récepteurs β1-cardiaques (setting [4]), the “Effet inotrope + de l'isoprénaline Concentration active Après produit” value is 5,8.10^-8 and the “Effet chronotrope + de l'isoprénaline Concentration active Après produit” value is 1,8.10^-7.
